{
  "source": "patent US20060269924A1",
  "about": "“Modulation of telomere-initiated cell signaling” (TRUSTEES OF BOSTON UNIVERSITY, priority 2003, published 2006)",
  "key": {"[1]": {"system": "R2F (p53DD/cdk4^R24C) fibroblasts", "experiment": "SA-β-Gal staining, p53DD/cdk4^R24C R2F fibroblasts", "format": "cell-based, human", "conditions": "R2F fibroblasts expressing both p53DD and cdk4^R24C, 40 μM, 1 week", "procedure": "FIG. 12a: Immunoblot analysis of p53DD and cdk4^R24C expression. Cells were collected for protein analysis by western blot using 30 μg total protein and probed for total p53 and cdk4. Lanes 1, 2, 3 and 4 contain protein samples from R2F, R2F (p53DD), R2F (cdk4^R24C) and R2F (p53DD/cdk4^R24C) fibroblasts, respective. β-actin was used as a loading control. FIG. 12b: Contribution of p53 and pRb pathways to T-oligo-induced SA-β-Gal activity. R2F fibroblasts and derived transductants were treated with diluent or 40 μM T-oligo for one week and then assayed for SA-β-Gal activity. FIG. 12c: Quantitative analysis of SA-β-Gal positive cells. Cells expressing SA-β-Gal activity were counted and presented as percentage of total cells in the cultures. Averages and standard deviations were calculated from 3 representative fields from each of 3 independent experiments.\nR2F newborn dermal fibroblasts and derived p53DD, […] and p53DD/cdk4^R24C transductants (a generous gift from Dr. James G. Rheinwald of Harvard Medical School) lack a functional p53 pathway, pRb pathway, and both pathways respectively.\nCells were treated once with diluent alone, 40 μM T-oligo or 40 μM complementary oligo for 1 week without re-feeding. […]\nCells were treated with either diluent or 40 μM T-oligo for 1 week and then assessed for SA-β-Gal activity. […]"}, "p53 phosphoserine 37": {"system": "p53 phosphoserine 37", "experiment": "Western blot for p53 phosphoserine 37", "format": "cell-based", "conditions": "normal neonatal fibroblasts, 40 μM", "procedure": "Western blot analysis was performed on normal neonatal cells using a antibody specific for p53 phosphoserine 37 after being treated with either diluent or 40 μM for the indicated times.\nNormal neonatal fibroblasts were treated with either diluent or 40 μM (11mer-1) for 4, 6, 8, 19, 24 and 48 hours and then collected for Western blot analysis using an antibody specific for p53 phosphoserine 37. Sham and IR-irradiated (10 Gy) fibroblasts were used used as negative and positive controls, respectively."}, "[2]": {"system": "HT-1080 fibrosarcoma cells", "experiment": "Telomere length (mean TRF length) assay", "format": "cell-based, human", "conditions": "HT-1080 cells, 40 μM, 4 days", "procedure": "Cells were treated as described in FIG. 13a. Lanes 1, 2, 3 contain genomic DNA from cells treated with diluent (D), T-oligo (T), or complementary oligo (C). Lanes 4 and 5 contain high (H) molecular and low (L) molecular weight standard telomeric DNA.\nHT-1080 fibrosarcoma cells were treated with diluent, 40 μM T-oligo or 40 μM complementary oligo for 4 days and then the genomic DNA was isolated using the DNeasy Tissue Kit (Qiagen, Valencia, Calif.). Telomere length was determined using the Telo TTAGGG Telomere Length Assay (Roche Molecular Biochemicals, Indianapolis, Ind.) following the protocol supplied by the manufacturer. […] Terminal restriction fragments (TRF) were detected by chemiluminescence. The mean TRF length was calculated by scanning the exposed X-ray film with a densitometer and calculated as previously described (Harley et al. [1990] Telomeres shorten during ageing of human fibroblasts. Nature 345, 458-460).\nTo determine the affect of T-oligos on the mean telomere length (MTL) in HT-1080 cells, cells were analyzed after treatment with T-oligo for 4 days which corresponded to the time that the senescent phenotype was readily observed. […] The less than 100 bp difference in calculated MTL is within the range of experimental variation and is not significant."}, "S91 mouse melanoma cells": {"system": "S91 mouse melanoma cells", "experiment": "Melanin content of S91 melanoma cells", "format": "cell-based", "conditions": "40 μM, 6 days", "procedure": "Cultures of S91 mouse melanoma cells (100,000 cells/38 cm^2) were treated with 100 μM pTpT or phosphorothioate pTpT (pTspT) (FIG. 4) or 40 μM 11mer-1 or the phosphorothioate 11mer-1 (11mer-1-S) (FIG. 5) for 6 days and were then collected, counted and assayed for melanin content.\nDuplicate cultures of S91 cells (100,000 cells/39 cm^2) were either sham-irradiated or irradiated with 5 mJ/cm^2 solar-simulated light from a 1 kW xenon arc solar-simulator (XMN 1000-21, Optical Radiation, Azuza, Calif.) metered at 285±5 nm using a research radiometer (model IL1700A, International Light, Newburyport, Mass.). Two sham-irradiated plates were then supplemented with 100 μM pTspT and two irradiated cultures were similarly treated with pTspT. After one week, cells were collected, counted and analyzed for melanin content by dissolving the cell pellets in 1 N NaOH and measuring the optical density at 475 nm. […] However, this response was blocked by the addition of pTspT (FIG. 6). In addition, the constitutive pigmentation of these cells was reduced by the pTspT in the sham-irradiated cultures, similar to the data presented in FIGS. 4 and 5."}},
  "note": "{P} = phosphate",
  "data": [
    {"substance": "pGTTAGGGTTAG (DNA, 5' {P}, backbone not given here; listed as Homo sapiens) [Oligonucleotide 11mer-1]", "values": [
      {"measurement": "SA-β-Gal positive cells", "setting": "[1]", "value": "7±1", "unit": "%"},
      {"measurement": "p53 serine 37 phosphorylation (band intensity vs diluent)", "setting": "p53 phosphoserine 37; 8 hours", "value": "detected"},
      {"measurement": "p53 serine 37 phosphorylation (band intensity vs diluent)", "setting": "p53 phosphoserine 37; 48 hours", "value": "very prominent"},
      {"measurement": "mean telomere length (MTL)", "setting": "[2]", "value": 5.56, "unit": "kb"},
      {"measurement": "melanogenesis (melanin content)", "setting": "S91 mouse melanoma cells", "value": "stimulated melanogenesis"}
    ]}
  ]
}
